Reference: patent US20210393621A1, “COMBINATION SEROTONIN SPECIFIC REUPTAKE INHIBITOR AND SEROTONIN 1A RECEPTOR PARTIAL AGONIST FOR REDUCING L-DOPA-INDUCED DYSKINESIA” (The Research Foundation for The State University of new York, priority 2018, published 2021)
Entries after “also recorded” stand apart in the source; their conditions may differ. Where two headings read alike, the source gives them in different places.

Assays:
[1] = system: L-DOPA-primed 6-OHDA-lesioned rats; assay: Experiment 3: AIMs with 5-HT1AR or 5-HT1BR antagonist before Vilazodone and L-DOPA; type: in vivo, Sprague-Dawley rats; conditions: then VZD 0 or 10 mg/kg, then L-DOPA 6 mg/kg, s.c.
Description: In each study, the LD-primed rats received (FIG. 4A) the 5-HT1AR antagonist WAY100635 [WAY; 0 or 0.5 mg/kg, s.c.] or (FIG. 4B) the 5-HT1BR antagonist NAS [NAS; 0 or 0.3 mg/kg, s.c.]) 5 min prior to VZD (0 or 10 mg/kg, s.c.) injected 5 min prior to LD (6 mg/kg, s.c.) in a within-subjects counterbalanced design. ALO AIMs were evaluated and are shown for every 10 min for 3 h after LD administration.
All 6-OHDA-lesioned rats (n=17) were tested on the FAS prior to treatment regimens to establish baseline motor performance. Three-weeks post-surgery, all rats were primed with L-DOPA (6 mg/kg, s.c.) for 14 days.
Beginning 10 min post-treatment, a trained and blinded observer assigned a severity score (0-4) to each of the ALO AIMs based on 1 min ratings every 10 min for 3 h: 0, not present; 1, present from 1-29 s; 2, present 30-59 s; 3, present all 60 s, but interruptible by a cylinder tap; 4, present 60 s and not interruptible by a cylinder tap.

DRN 5-HT neurons = assay: Example 3: in vivo single-unit recordings of DRN 5-HT neurons; design: species or system rats
[2] = system: unilateral 6-OHDA-lesioned rats; assay: Example 2: L-DOPA-induced dyskinesias (LIDs) scoring; type: in vivo, Sprague-Dawley rats
Description: 6-OHDA-induced dopaminergic lesions: Adult male Sprague-Dawley rats were randomly assigned to groups receiving either a 6-OHDA or sham lesion. […] [[…] 2019]. […] Rats were treated for 5 consecutive days/week (Mon-Fri), for 2 weeks. […] All rats were evaluated three times per week for the presence of L-DOPA-induced dyskinesias (LIDs) (Wed-Fri) and once for the stepping test (Tue). […] Scores were given over 1 min epochs and classified as axial, limb, orolingual and locomotive. […] Arrows=inhibitory input; dashed arrows=compromised function. The severity of each LID was scored using a standard scale. Each dyskinetic behavior was given an intensity and frequency score, which were then multiplied. The average sum of the products of each LID was determined in each animal.

[3] = system: 6-OHDA-lesioned hemi-parkinsonian rats; assay: Experiment 2: forepaw adjusting steps (FAS); type: in vivo, Sprague-Dawley rats; conditions: L-DOPA-naive rats; VZD 0, 10 or 20 mg/kg + L-DOPA 6 mg/kg; Days 1, 8, 15, 22
Description: […].). All VZD injections were administered 5 min prior to LD. […] AIMs values expressed are the median sum of axial, limb, and orolingual (ALO) behaviors. […] Values are expressed as medians [±median absolute difference (M.A.D.)]. […] Forepaw adjusting steps (FAS): The FAS test is a measure of forelimb akinesia performed according to previous protocols (Bishop et al., 2012; Chang et al., 1999). Data are presented as mean percent intact stepping where the sum of the total steps with the lesioned forepaw was divided by the total steps with the unlesioned forepaw multiplied by 100. Lower percent intact scores indicate greater forelimb akinesia. Prior to baseline, rats received 2 acclimation periods. On-treatment FAS was performed 60 min post-L-DOPA.

[4] = system: striatal c-Fos, PPD, PPE, PPT and 5-HT1AR mRNA; assay: Experiment 2: real-time RT-PCR of striatal gene expression
[5] = system: striatal and raphe tissue monoamines; assay: Experiment 1: HPLC of tissue monoamines and metabolites in striatum and dorsal raphe nucleus; conditions: for 5-HIAA / 5-HT / 5-HT Turnover / DA / DA Turnover / DOPAC: Striatum, VZD(0) + LD(6) mg/kg, 60 min post-LD
Description: Three-weeks post-lesion, animals were divided into 2 equally disabled groups, measured by forepaw adjusting steps (FAS, see below). One group (n=8) began receiving 14 days of daily vehicle (0.9% NaCl+0.1% ascorbic acid) and the other (n=22) received L-DOPA methyl ester (6 mg/kg, s.c.; Sigma)+DL-serine 2-(2,3,4-trihydroxybenzyl) hydrazine hydrochloride (benserazide; 15 mg/kg, s.c.; Sigma), hereafter L-DOPA, dissolved in vehicle at a volume of 1 mg/kg. Treatment persisted for 14 days to produce stable AIMs expression (Putterman et al., 2007; Conti et al., 2014). Thereafter, L-DOPA-treated animals with Axial, Limb, and Orolingual (ALO) AIMs (see description below, FIG. 1A)<30 were excluded from the study and the remaining L-DOPA-treated animals were divided into 3 equally dyskinetic groups. […] Daily injections continued over 23 days, with behavior assayed on Days 15, 22, 29, and 36. On Day 37, animals were killed 60 min post-treatment Left and right dorsal striata and DRN were dissected and flash frozen for HPLC analyses.
High-performance liquid chromatography (HPLC): HPLC, a method for semi-automated catecholamine analysis with coulometric detection, was performed according to prior protocols (Bishop et al., 2009) to determine the tissue levels of monoamines, their metabolites, and monoamine turnover in the striatum and DRN. The limit of detection for DOPAC, DA, 5-hydroxyindoleacetic acid (5-HIAA) and 5-HT was 10^−10 M. Final oxidation current values were plotted on a standard curve from 10^−6 M to 10^−9 M and expressed as pg of monoamine or metabolite per mg of tissue unless otherwise specified.
On the final treatment day, animals were sacrificed 60 min post-LD treatment and left and right striata and dorsal raphe nucleus (DRN) were collected for high performance liquid chromatography (HPLC) analysis. Values (means±standard mean error) are expressed as picograms of monoamine or metabolite per milligram wet tissue weight. Turnover estimates were determined by dividing a subjects metabolite value by its corresponding monoamine. Differences were assessed by a 2×4 (lesion×treatment) ANOVA, followed by Fisher's LSD post-hocs when appropriate. *p<0.01 vs lesion vs intact; +p<0.05 vs all; ^p<0.05 vs VZD (0)+LD (0); #p<0.05 vs VZD (0)+LD (6)

[6] = dry and wet AMD; patients taking versus not taking L-DOPA; cited from earlier work
[7] = in vivo; cited from earlier work
[8] = system: 6-OHDA-lesioned hemi-parkinsonian rats; assay: Experiment 1: forepaw adjusting steps (FAS); type: in vivo, Sprague-Dawley rats; conditions: L-DOPA-primed rats; VZD 0, 10 or 20 mg/kg + L-DOPA 6 mg/kg; 60 min post-L-DOPA
Description: Conti et al., 2014). […] Forepaw adjusting steps (FAS): The FAS test is a measure of forelimb akinesia performed according to previous protocols (Bishop et al., 2012; Chang et al., 1999). Data are presented as mean percent intact stepping where the sum of the total steps with the lesioned forepaw was divided by the total steps with the unlesioned forepaw multiplied by 100. Lower percent intact scores indicate greater forelimb akinesia. Prior to baseline, rats received 2 acclimation periods. On-treatment FAS was performed 60 min post-L-DOPA.

5-HT1A receptor = target: T1, 5-HT1A receptor (Homo sapiens, UniProt P08908); design: expressed in transfected cells; host or cells: SF9 cells; conditions: 5-HT1A receptor expressed in SF9 cells; cited from earlier work
T1 sequence (P08908 1-422): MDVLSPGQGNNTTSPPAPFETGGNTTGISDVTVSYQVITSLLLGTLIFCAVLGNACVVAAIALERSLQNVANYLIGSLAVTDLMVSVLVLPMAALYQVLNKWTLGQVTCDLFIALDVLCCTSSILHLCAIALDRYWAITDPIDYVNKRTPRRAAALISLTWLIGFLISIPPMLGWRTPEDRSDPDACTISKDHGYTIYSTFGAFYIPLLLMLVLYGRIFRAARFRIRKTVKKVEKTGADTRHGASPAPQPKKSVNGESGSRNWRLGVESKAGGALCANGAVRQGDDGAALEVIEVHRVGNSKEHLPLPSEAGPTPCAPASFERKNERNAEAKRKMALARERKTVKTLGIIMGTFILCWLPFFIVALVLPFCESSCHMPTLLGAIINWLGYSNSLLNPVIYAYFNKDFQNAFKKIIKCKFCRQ

[9] = system: extracellular 5-HT, dopamine and norepinephrine; conditions: cited from earlier work; for extracellular dopamine and norepinephrine: rat brain, vilazodone 1 and 10 mg/kg; for maximal increase of extracellular 5-HT: rats, acute systemic injection, measured 3 h after injection
5HT2A = conditions: rat cerebral cortex; read-out: affinity Ki; cited from earlier work
[10] = system: unilateral 6-OHDA-lesioned rats; assay: Example 2: stepping test; type: in vivo, Sprague-Dawley rats; conditions: vilazodone 10 mg/kg or escitalopram 12.5 mg/kg + L-DOPA 5 mg/kg; 60 minutes post L-DOPA
Description: 6-OHDA-induced dopaminergic lesions: Adult male Sprague-Dawley rats were randomly assigned to groups receiving either a 6-OHDA or sham lesion. All rats received desipramine (10 mg/kg i.p.) 30 min prior to surgery to prevent the lesioning of norepinephrine neurons by 6-OHDA. A single injection of 6-OHDA (8 μg of 6-OHDA free base in 4 μl of 0.1% ascorbic acid) was delivered into the right medial forebrain bundle (coordinates taken from bregma: −4.3 mm AP, 1.6 mm ML, −8.3 mm DV). The same experimental treatment was performed for the sham-operated rats using vehicle (4 μl of 0.1% ascorbic acid). A standard stepping test was used to evaluate the effectiveness of the 6-OHDA lesion.
Rats were treated for 5 consecutive days/week (Mon-Fri), for 2 weeks. On the second day of each week, stepping tests were performed prior to drug administration, and 60 minutes post L-DOPA treatment.

[11] = lesioned striata, VZD 0, 10 or 20 mg/kg + L-DOPA 6 mg/kg daily, day 23, 60 min post-injection

SMILES: COc1ccccc1N1CCN(CCN(C(=O)C2CCCCC2)c2ccccn2)CC1.O=C(O)/C=C\C(=O)O [WAY100635, N-[2-[4(2-Methoxyphenyl)-1-piperazinyl]ethyl]-N-2-pyridinylcyclohexanecarboxamide maleate salt]
- summed ALO AIMs, 5-HT1AR study ([1]; WAY100635 0 or 0.5 mg/kg): partially reversed the anti-dyskinetic efficacy of Vilazodone
- spontaneous firing of DRN 5-HT neurons (DRN 5-HT neurons; i.v., 8-OH-DPAT then WAY-100635 100 μg/kg, BFP and D2Rs expressing rats): return to baseline firing was observed
- effect of 5-HT1A blockade on vilazodone's benefit on LIDs ([2]; WAY100635 with vilazodone + L-DOPA): reverses the beneficial effects of vilazodone on LIDs

SMILES: N[C@@H](Cc1ccc(O)c(O)c1)C(=O)O [L-DOPA, L-3,4-dihydroxyphenylalanine]
- FAS stepping relative to baseline [3]: significant increases in motor ability on each test day
- striatal PPT mRNA ([4]; FIG. 6B): did not increase striatal PPT
- striatal PPE mRNA ([4]; lesioned striata, L-DOPA 6 mg/kg, Vilazodone 20 mg/kg): significantly increased PPE
- striatal PPD mRNA [4, 11]: significantly increased PPD
- striatal c-Fos mRNA [4, 11]: potentiated c-Fos
- DRN levels of DA, DOPAC and DA Turnover ([5]; L-DOPA 6 mg/kg): significantly increased DRN levels of DA, DOPAC and DA Turnover
- 5-HIAA ([5]; Intact): 650 ± 68.9 picograms per milligram wet ti
- 5-HT ([5]; Intact): 241 ± 29.6^ picograms per milligram wet ti
- 5-HT Turnover ([5]; Intact): 2.77 ± 0.15+
- DA ([5]; Intact): 4561 ± 210 picograms per milligram wet ti
- DA Turnover ([5]; Intact): 0.89 ± 0.04
- DOPAC ([5]; Intact): 4051 ± 224 picograms per milligram wet ti
- 5-HIAA ([5]; Lesion): 907 ± 82.5 picograms per milligram wet ti
- 5-HT ([5]; Lesion): 264 ± 39.6 picograms per milligram wet ti
- 5-HT Turnover ([5]; Lesion): 3.93 ± 0.63
- DA ([5]; Lesion): 83.3 ± 7.99 picograms per milligram wet ti
- DA Turnover ([5]; Lesion): 1.42 ± 0.23
- DOPAC ([5]; Lesion): 127 ± 30.7 picograms per milligram wet ti
- delay of onset of AMD [6]: around 8 years
- fraction that crosses the blood-brain barrier [7]: 5-10%
- FAS motor performance versus baseline [8]: significant improvements on motor performance over baseline

SMILES: Br.CCCN(CCC)C1CCc2cccc(O)c2C1 (centres unmarked) [8-OH-DPAT, 8-hydroxy-2-(dipropylamino) tetralin hydrobromide]
- increase of [35S]GTPγS binding compared to vehicle (5-HT1A receptor): eightfold
- spontaneous firing of DRN 5-HT neurons (DRN 5-HT neurons; rat, in vivo, iv): suppressed the spontaneous firing of a DRN neuron
- extracellular dopamine and norepinephrine [9]: caused an increase

SMILES: O=C1CC2(CCCC2)CC(=O)N1CCCCN1CCN(c2ncccn2)CC1 [buspirone]
- extracellular dopamine and norepinephrine [9]: caused an increase

SMILES: O=S1(=O)N(CCN2CC=C(c3c[nH]c4cc(F)ccc34)CC2)c2cccc3c2N1CCC3 [LY367265]
- Ki (5HT2A): 490 nM

SMILES: CNCCC(Oc1ccc(C(F)(F)F)cc1)c1ccccc1 (centres unmarked) [fluoxetine]
- maximal increase of extracellular 5-HT ([9]; frontal cortex): 165%
- maximal increase of extracellular 5-HT ([9]; ventral hippocampus): 274%

SMILES: c1ccc2c(c1)OC[C@H](CNCCCOc1ccc3c(c1)OCO3)O2 [MKC-242]
- extracellular dopamine and norepinephrine [9]: caused an increase

SMILES: CN(C)CCC[C@@]1(c2ccc(F)cc2)OCc2cc(C#N)ccc21 [Escitalopram]
- forelimb akinesia and L-DOPA prokinetic / therapeutic efficacy (stepping test) [10]: affected L-DOPA therapeutic efficacy; also recorded: interfered with the therapeutic efficacy of L-DOPA
- LIDs score / severity ([2]; pretreatment with vilazodone 10 mg/kg or escitalopram 12.5 mg/kg before L-DOPA 5 mg/kg, 2 weeks): significantly reduced LIDs severity; also recorded: significant reduction in total LIDs score

SMILES: C1=C(CN2CCOCC2)COc2c1cccc2OC[C@H]1CNCCO1.CS(=O)(=O)O [NAS-181, (R)-(+)-2-(3-morpholinomethyl-2H-chromen-8-yl) oxymethyl-morpholine methane-sulfonate]
- ALO AIMs, 5-HT1BR study ([1]; NAS-181 0 or 3.0 mg/kg): did not significantly alter AIMs or their reduction by Vilazodone
